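48-hour exposure; five concentrations; linearly interpolated endpoints. Here, GI50 denotes the concentration required for 50% inhibition of growth.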 Active and inactive are the calls of the source. Rule as the data show it: active = GI50 up to about 1.1 µM and inactive = higher.
Assays:
Assay in all cases: inhibition of tumour cell growth, NCI panel, 48 h
MCF7 = system: MCF7
M14 = system: M14
PC-3 = system: PC-3
KM12 = system: KM12
NCI-H226 = system: NCI-H226
SNB-19 = system: SNB-19
SW-620 = system: SW-620
TK-10 = system: TK-10
SK-MEL-2 = system: SK-MEL-2
T47D = system: T47D
SF-539 = system: SF-539
CAKI-1 = system: CAKI-1
SF-268 = system: SF-268
NCI-H23 = system: NCI-H23
DU-145 = system: DU-145
UACC-62 = system: UACC-62
LOX IMVI = system: LOX IMVI
A549 = system: A549
UO-31 = system: UO-31
HCC 2998 = system: HCC 2998

Measured: GI50

C=C1CC/C=C(\C)CCC[C@H](C)[C@@H](O)[C@@H]2OC(=O)C(=C)[C@@H]2C[C@H]1O
inactive: MCF7 4 µM | M14 4.75 µM | PC-3 10 µM | KM12 15 µM | NCI-H226 4.05 µM | SNB-19 14.8 µM | SW-620 2.22 µM | TK-10 1.49 µM | SK-MEL-2 13.3 µM | T47D 8.24 µM | SF-539 2.27 µM | CAKI-1 3.94 µM | SF-268 8.26 µM | NCI-H23 12.5 µM | DU-145 4.57 µM | UACC-62 8.91 µM | LOX IMVI 3.69 µM | A549 17.1 µM | UO-31 6.22 µM | HCC 2998 18.4 µM

COc1ccc(OC)c2c(=S)c3ccccc3[nH]c12
inactive: MCF7 36.7 µM | M14 > 100 µM | PC-3 78.5 µM | KM12 > 100 µM | NCI-H226 > 21.5 µM | SNB-19 > 100 µM | SW-620 > 75.3 µM | TK-10 > 67.8 µM | SK-MEL-2 > 100 µM | T47D > 100 µM | SF-539 > 79.1 µM | CAKI-1 > 100 µM | SF-268 > 86.1 µM | NCI-H23 99.8 µM | DU-145 > 100 µM | UACC-62 60.1 µM | LOX IMVI 46.8 µM | A549 > 100 µM | UO-31 39.4 µM | HCC 2998 > 100 µM

CCCCNc1nc(O)c2[nH]cnc2n1
inactive: MCF7 > 100 µM | M14 > 100 µM | PC-3 > 100 µM | KM12 > 100 µM | NCI-H226 > 100 µM | SNB-19 > 100 µM | SW-620 > 100 µM | TK-10 > 100 µM | SK-MEL-2 > 100 µM | T47D > 100 µM | SF-539 > 100 µM | CAKI-1 > 100 µM | SF-268 > 100 µM | NCI-H23 > 100 µM | DU-145 > 100 µM | UACC-62 > 100 µM | LOX IMVI > 100 µM | A549 > 100 µM | UO-31 > 100 µM | HCC 2998 > 100 µM

— ChEMBL document CHEMBL1201862, “PubChem BioAssay data set” (2004)
